From BindingDB's records for doi:10.1021/jm970470c (Warner-Lambert, 1997)

Assay: Concentration required to inhibit 50% of the cultured colonies of H-Ras-Fcells.

| Structure (SMILES) | IC50 [nM] |
| --- | --- |
| O=C(CN(Cc1ccc(OCc2ccccc2)cc1)C(=O)[C@H](Cc1cnc[nH]1)NC(=O)OCc1ccccc1)NCCOCc1ccccc1 [[(S)-1-{(4-Benzyloxy-benzyl)-[(2-benzyloxy-ethylcarbamoyl)-methyl]-carbamoyl}-2-(1H-imidazol-4-yl)-ethyl]-carbamic acid benzyl ester] | 14300 |
| O=C(CN(Cc1ccc(OCc2ccccc2)cc1)C(=O)[C@H](Cc1cnc[nH]1)NC(=O)OCc1ccccc1)NCCc1ccccc1 [[(S)-1-[(4-Benzyloxy-benzyl)-(phenethylcarbamoyl-methyl)-carbamoyl]-2-(1H-imidazol-4-yl)-ethyl]-carbamic acid benzyl ester] | 4300 |
| O=C(CN(Cc1ccc(OCc2ccccc2)cc1)C(=O)[C@H](Cc1cnc[nH]1)NC(=O)OCc1ccccc1)NCC1(c2ccccc2)CCCC1 [[(S)-1-((4-Benzyloxy-benzyl)-{[(1-phenyl-cyclopentylmethyl)-carbamoyl]-methyl}-carbamoyl)-2-(3H-imidazol-4-yl)-ethyl]-carbamic acid benzyl ester] | 330 |
| C[C@H](Cc1ccccc1)NC(=O)CN(Cc1ccc(OCc2ccccc2)cc1)C(=O)[C@H](Cc1cnc[nH]1)NC(=O)OCc1ccccc1 [[(S)-1-{(4-Benzyloxy-benzyl)-[((R)-1-methyl-2-phenyl-ethylcarbamoyl)-methyl]-carbamoyl}-2-(3H-imidazol-4-yl)-ethyl]-carbamic acid benzyl ester] | 710 |
| CCCC(CNC(=O)CN(Cc1ccc(OCc2ccccc2)cc1)C(=O)[C@H](Cc1cnc[nH]1)NC(=O)OCc1ccccc1)c1ccccc1 (stereo partly drawn) [[(S)-1-{(4-Benzyloxy-benzyl)-[(2-phenyl-pentylcarbamoyl)-methyl]-carbamoyl}-2-(3H-imidazol-4-yl)-ethyl]-carbamic acid benzyl ester] | > 1000 |
| C[C@@H](CNC(=O)CN(Cc1ccc(OCc2ccccc2)cc1)C(=O)[C@H](Cc1cnc[nH]1)NC(=O)OCc1ccccc1)c1ccccc1 [[(S)-1-{(4-Benzyloxy-benzyl)-[((R)-2-phenyl-propylcarbamoyl)-methyl]-carbamoyl}-2-(3H-imidazol-4-yl)-ethyl]-carbamic acid benzyl ester] | 570 |
| CC(CNC(=O)CN(Cc1ccc(OCc2ccccc2)cc1)C(=O)[C@H](Cc1cnc[nH]1)NC(=O)OCc1ccccc1)c1ccccc1 (stereo partly drawn) [[(S)-1-{(4-Benzyloxy-benzyl)-[(2-phenyl-propylcarbamoyl)-methyl]-carbamoyl}-2-(3H-imidazol-4-yl)-ethyl]-carbamic acid benzyl ester] | 310 |
| CCC(CC)(CNC(=O)CN(Cc1ccc(OCc2ccccc2)cc1)C(=O)[C@H](Cc1cnc[nH]1)NC(=O)OCc1ccccc1)c1ccccc1 [[(S)-1-{(4-Benzyloxy-benzyl)-[(2-ethyl-2-phenyl-butylcarbamoyl)-methyl]-carbamoyl}-2-(3H-imidazol-4-yl)-ethyl]-carbamic acid benzyl ester] | > 1000 |
| CCC(CNC(=O)CN(Cc1ccc(OCc2ccccc2)cc1)C(=O)[C@H](Cc1cnc[nH]1)NC(=O)OCc1ccccc1)c1ccccc1 (stereo partly drawn) [[(S)-1-{(4-Benzyloxy-benzyl)-[(2-phenyl-butylcarbamoyl)-methyl]-carbamoyl}-2-(3H-imidazol-4-yl)-ethyl]-carbamic acid benzyl ester] | 400 |
| C[C@@H](Cc1ccccc1)NC(=O)CN(Cc1ccc(OCc2ccccc2)cc1)C(=O)[C@H](Cc1cnc[nH]1)NC(=O)OCc1ccccc1 [[(S)-1-{(4-Benzyloxy-benzyl)-[((S)-1-methyl-2-phenyl-ethylcarbamoyl)-methyl]-carbamoyl}-2-(3H-imidazol-4-yl)-ethyl]-carbamic acid benzyl ester] | 6300 |

Now those with a lower IC50, led by results:

| IC50 [nM] | Structure (SMILES) |
| --- | --- |
| 300 | C[C@H](CNC(=O)CN(Cc1ccc(OCc2ccccc2)cc1)C(=O)[C@H](Cc1cnc[nH]1)NC(=O)OCc1ccccc1)c1ccccc1 [[(S)-1-{(4-Benzyloxy-benzyl)-[((S)-2-phenyl-propylcarbamoyl)-methyl]-carbamoyl}-2-(3H-imidazol-4-yl)-ethyl]-carbamic acid benzyl ester] |
| 190 | N#CC(CNC(=O)CN(Cc1ccc(OCc2ccccc2)cc1)C(=O)[C@H](Cc1cnc[nH]1)NC(=O)OCc1ccccc1)c1ccccc1 (stereo partly drawn) [[(S)-1-{(4-Benzyloxy-benzyl)-[(2-cyano-2-phenyl-ethylcarbamoyl)-methyl]-carbamoyl}-2-(3H-imidazol-4-yl)-ethyl]-carbamic acid benzyl ester] |
| 180 | O=C(CN(Cc1ccc(OCc2ccccc2)cc1)C(=O)[C@H](Cc1cnc[nH]1)NC(=O)OCc1ccccc1)NCC1(c2ccccc2)CC1 [[(S)-1-((4-Benzyloxy-benzyl)-{[(1-phenyl-cyclopropylmethyl)-carbamoyl]-methyl}-carbamoyl)-2-(3H-imidazol-4-yl)-ethyl]-carbamic acid benzyl ester] |
| 180 | CC(C)(CNC(=O)CN(Cc1ccc(OCc2ccccc2)cc1)C(=O)[C@H](Cc1cnc[nH]1)NC(=O)OCc1ccccc1)c1ccccc1 [[(S)-1-{(4-Benzyloxy-benzyl)-[(2-methyl-2-phenyl-propylcarbamoyl)-methyl]-carbamoyl}-2-(3H-imidazol-4-yl)-ethyl]-carbamic acid benzyl ester] |
| 88 | O=C(CN(Cc1ccc(OCc2ccccc2)cc1)C(=O)[C@H](Cc1cnc[nH]1)NC(=O)OCc1ccccc1)NCC1(c2ccccc2)CCC1 [[(S)-1-((4-Benzyloxy-benzyl)-{[(1-phenyl-cyclobutylmethyl)-carbamoyl]-methyl}-carbamoyl)-2-(3H-imidazol-4-yl)-ethyl]-carbamic acid benzyl ester] |
